Values quoted from earlier work as cited in PMC9370779, “Traditional Medicinal Uses, Phytochemistry, Biological Properties, and Health Applications of Vitex sp” (Plants, 2022).
Entries after “also recorded” stand apart in the source; their conditions may differ.

Key:
[1] = tested on: COX-2; parameters: method as in PMID 31302252
[2] = tested on: NF-κB signal pathways; parameters: method as in PMID 31302252
[3] = tested on: inducible nitric oxide synthase (iNOS); parameters: method as in PMID 31302252
[4] = tested on: interleukin 1-beta (IL-1β); parameters: method as in PMID 31302252
[5] = tested on: IL-6; parameters: method as in PMID 31302252
[6] = tested on: LPS-induced NO production; parameters: method as in PMID 31302252
[7] = tested on: esophageal carcinoma (Eca-109)
[8] = tested on: leukemia (HL-60)
[9] = tested on: pancreatic cancer (PANC-01)
[10] = tested on: gastric cancer (SGC-7901)
[11] = tested on: Musca; parameters: method as in PMID 12444704
[12] = tested on: NO production in LPS-induced murine macrophage (RAW 264.7) cells; parameters: method as in PMID 29429059; conditions: LPS-induced RAW 264.7 macrophages, up to 100 μM
[13] = tested on: HCT 116 cells; parameters: method as in PMID 28602939
[14] = parameters: method as in PMID 28602939; conditions: cell line not stated
[15] = tested on: Topoisomerase-1 (Top1); parameters: method as in PMID 28602939
[16] = tested on: LPS-induced NO production in murine microglial cell BV-2 cells; parameters: method as in PMID 31448638; conditions: read-out: inhibition of LPS-stimulated NO production, IC50
[17] = tested on: BV-2 cells; parameters: method as in PMID 31448638
[18] = tested on: NO production; parameters: method as in PMID 25245917; conditions: at 80 μM, the highest concentration tested
[19] = tested on: DOR; parameters: method as in PMID 21163339
[20] = tested on: MOR; parameters: method as in PMID 21163339
[21] = parameters: method as in PMID 27118321; conditions: ABTS stated for 131
[22] = tested on: LPS-induced NO production in murine microglia (BV-2) cells; parameters: method as in PMID 27118321
[23] = parameters: method as in PMID 24965780
[24] = tested on: human nasopharyngeal carcinoma (CNE1) cell line; parameters: method as in PMID 28453270; conditions: read-out: cytotoxic activity against CNE1, IC50 value
[25] = tested on: NADP(H); quinone oxireductase type1 (QR1); parameters: method as in PMID 23662135
[26] = biological target: dopamine-D2-receptor; parameters: method as in PMID 10865453
[27] = tested on: RAW 264.7 macrophages; parameters: method as in PMID 25245917; conditions: at 40 μM
[28] = tested on: cervical cancer (HeLa) cell; parameters: method as in PMID 19156599; conditions: range given for both compounds together; read-out: inhibition of HeLa cell proliferation, IC50
[29] = tested on: human liver carcinoma (HepG2) cell lines; parameters: method as in PMID 27118321
[30] = tested on: Musca domestica larvae; parameters: method as in doi:10.1016/S0031-9422(00)94985-9
[31] = tested on: severe myelogenous leukemia tumor (K562) cells; parameters: method as in doi:10.1016/j.jscs.2021.101298; conditions: read-out: cytotoxicity against K562 cells, IC50 value

In the case of `CC1=C(CCC2=CCOC2=O)[C@@]2(C)CC[C@H](O)C(C)(C)[C@@H]2CC1` [Compound 98, (3S,5R,10S)-3-hydroxy-labd-8,13-dien-16,15-olide], the “inhibition of COX-2” value [1] is given as “able to inhibit; also recorded: inhibition on iNOS, COX-2 and NF-κB signal pathways”, the “inhibition of NF-κB signal pathways” value [2] is given as “able to inhibit; also recorded: inhibition on iNOS, COX-2 and NF-κB signal pathways” and the “inhibition of iNOS” value [3] is given as “able to inhibit; also recorded: inhibition on iNOS, COX-2 and NF-κB signal pathways”. The “inhibition of IL-1β level” value [4] was “significant inhibition”, the “inhibition of IL-6 level” value [5] was “significant inhibition” and the “inhibition of LPS-induced NO production (in words)” value [6] was “strong”. For the same molecule, the IC50 ([6]; read-out: inhibition of NO production, IC50 value) was 15.8 µM.

In the case of `CC1C(C=O)CCC2(C(=O)O)CCC3(C)C(=CCC4C5(C)CCC(O)C(C)(C)C5CCC43C)C12` (stereo not drawn) [Compound 147, 3β-hydroxy-30-al-urs-12-en-28-oic acid], the “cytotoxic activity against Eca-109” value [7] is listed as “Exhibited cytotoxic activity against HL-60, SGC-7901, PANC-01, and Eca-109 cell lines”, the “cytotoxic activity against HL-60” value [8] is listed as “Exhibited cytotoxic activity against HL-60, SGC-7901, PANC-01, and Eca-109 cell lines” and the “cytotoxic activity against PANC-01” value [9] is listed as “Exhibited cytotoxic activity against HL-60, SGC-7901, PANC-01, and Eca-109 cell lines”. The “cytotoxic activity against SGC-7901” value [10] was “Exhibited cytotoxic activity against HL-60, SGC-7901, PANC-01, and Eca-109 cell lines”.

For `CC(C)(O)CCC[C@](C)(O)C1CC[C@@]2(O)C3=CC(=O)[C@@H]4C[C@@H](O)[C@@H](O)C[C@]4(C)C3[C@H](O)C[C@]12C` (some centres unmarked) [Compound 110, scabrasterone], the “molting activity in the Musca bioassay” value [11] is given as “very weak molting activity”.

For `C[C@@H]1C[C@@H](O)C2C(C)(C)[C@@H](O[C@@H]3O[C@H](CO)[C@@H](O)[C@H](O)[C@H]3O)CC[C@]2(C)[C@@]1(O)CCC1=CCOC1=O` (stereo partly drawn) [Compound 96, (3S,5S,6S,8R,9R,10S)-3,6,9-trihydroxy-13(14)-labdean-16,15-olide-3-O-β-D-gluco-pyranoside], the “inhibitory effect on NO production (in words)” value [12] is listed as “No inhibitory activity on NO production in LPS-induced RAW 264.7 macrophages up to concentration of 100 μM”.

In the case of `C=CC(C)(O)CCC1(C)C2=C(CC(OCC)C1C)C(C)(C)CCC2` (centres unmarked) [Compound 90], the “cytotoxicity against HCT 116 cells (rank)” value [13] is given as “most cytotoxic”, the “cytotoxicity (in words)” value [14] is given as “moderate cytotoxicity in the micromolar range; also recorded: moderate cytotoxicity at micromolar range” and the “Top1 inhibition compared with camptothecin (CPT)” value [15] is given as “equipotent”.

In the case of `O=C(O)CC1CCC(=O)C1CC=CCCOC1OC(COC(=O)C=Cc2ccc(O)c(O)c2)C(O)C(O)C1O` (centres unmarked) [Compound 159, 12-hydroxyjasmonic acid (6-O-caffeoyl)glucoside], the IC50 [16] is listed as over 100 µM and the “cytotoxic effect on BV-2 cells” value [17] is listed as “no cytotoxic effect; also recorded: no effect of cytotoxicity”.

In the case of cannabifolin F [Compound 146], the “inhibition of NO production” value [18] is given as under 50%.

For `CC(=O)O[C@@H]1C[C@@H](C)[C@](O)(CCC2=CC(=O)OC2O)[C@@]2(C)CCCC(C)(C)[C@H]12` (some centres unmarked) [Compound 58, Viteagnusin I], the “activity on opioid receptor assay DOR” value [19] is given as “No activity was shown on opioid receptor assays DOR and MOR” and the “activity on opioid receptor assay MOR” value [20] is given as “No activity was shown on opioid receptor assays DOR and MOR”.

In the case of `COc1cc(C2c3cc(O)c(O)cc3C=C(C=O)C2COC2OC(CO)C(O)C(O)C2O)ccc1O` (centres unmarked) [Compound 129, vitexnegheteroin E], the antioxidant activity [21] is given as “antioxidant” and the “inhibition of LPS-induced NO production” value [22] is given as “inhibitory activities”.

For `COc1cc([C@H]2c3c(cc(OC)c(O)c3OC)C=C(C=O)[C@@H]2CO)ccc1O` [Compound 128, vitexdoin F], the “DPPH radical-scavenging activity compared with ascorbic acid” value [23] is listed as “Exhibited stronger activity than ascorbic acid using DPPH radical-scavenging assays”.

For `C[C@@H]1CC[C@H]2C(C)(C)CCC[C@]2(C)[C@@]1(O)CCc1cc[nH]c1C#N` [Compound 79, vitepyrroloid A], the IC50 [24] is given as 8.7 µM.

In the case of `CC(=O)OC1CC(C)C(O)(CCC2=CC(=O)NC2)C2(C)CCCC(C)(C)C12` (centres unmarked) [Compound 55, vitexlactam C], the QR1 induction activity [25] is given as “moderate results; also recorded: Compound 55 showed moderate result on NADP(H); quinone oxireductase type1 (QR1) induction activity”.

In the case of `C=CC(C)(O)CCC1=C(C)C(OC(C)=O)C(OC(C)=O)C2C(C)(C)CCCC12C` (stereo not drawn) [Compound 52, 6β,7β-diacetoxy-13-hydroxy-labda-8,14-diene], the “affinity to the dopamine-D2-receptor, IC50 value” [26] is given as “It showed strong affinity to the dopamine-D2-receptor with IC50 value of 15 μg/mL”.

In the case of `CC1(C)CC[C@@]23CC[C@@]4(C)[C@]5(C)CC[C@H]6C(C)(C)[C@@H](O)[C@H](O)C[C@]6(C)[C@H]5CC(=O)[C@]4(OC2=O)[C@@H]3C1` [Compound 145, cannabifolin E], the “cell viability of RAW 264.7 macrophages” value [27] is given as under 70%.

For `CC(=O)O[C@H]1CC[C@@]2(C)[C@@H](CC[C@@H](C)[C@]2(O)CCc2ccoc2)C1(C)C` [Compound 56, Vitetrifolin H], the IC50 [28] is listed as 4 to 28 µM.

In the case of `COc1cc(C2c3c(cc(OC)c(O)c3OC)C=C(C=O)C2COC2OC(CO)C(O)C(O)C2O)ccc1O` (centres unmarked) [Compound 130, vitexnegheteroin F], the “cytotoxic activity against HepG2 cell lines” value [29] is given as “moderate cytotoxic activity; also recorded: Exhibited moderate cytotoxic activities against human liver carcinoma (HepG2) cell lines”.

For `CC(C)(O)C(O)CC[C@](C)(O)[C@H]1CC[C@@]2(O)C3=CC(=O)[C@@H]4C[C@@H](O)[C@@H](O)C[C@]4(C)C3CC[C@]12C` (some centres unmarked) [Compound 103, pinnatasterone], the “activity against Musca domestica larvae” value [30] is given as “Exhibited weak activity against M. domestica larvae”.

In the case of `CC(=O)OC1CC(C)C2(CCC3(COC(=O)C3)O2)C2(C)CCCC(C)(C)C12` (centres unmarked) [Compound 99, 9-epivitexnegundin], the IC50 [31] is listed as over 100 µM.
